From ChEMBL document CHEMBL5291721, “A preclinical secondary pharmacology resource illuminates target-adverse drug reaction associations of marketed drugs” (Nat Commun, 2023) come the findings set out here.

Test [1] concerns the target T1, Alpha-2C adrenergic receptor (Homo sapiens, UniProt P18825).
T1 sequence (P18825 whole entry): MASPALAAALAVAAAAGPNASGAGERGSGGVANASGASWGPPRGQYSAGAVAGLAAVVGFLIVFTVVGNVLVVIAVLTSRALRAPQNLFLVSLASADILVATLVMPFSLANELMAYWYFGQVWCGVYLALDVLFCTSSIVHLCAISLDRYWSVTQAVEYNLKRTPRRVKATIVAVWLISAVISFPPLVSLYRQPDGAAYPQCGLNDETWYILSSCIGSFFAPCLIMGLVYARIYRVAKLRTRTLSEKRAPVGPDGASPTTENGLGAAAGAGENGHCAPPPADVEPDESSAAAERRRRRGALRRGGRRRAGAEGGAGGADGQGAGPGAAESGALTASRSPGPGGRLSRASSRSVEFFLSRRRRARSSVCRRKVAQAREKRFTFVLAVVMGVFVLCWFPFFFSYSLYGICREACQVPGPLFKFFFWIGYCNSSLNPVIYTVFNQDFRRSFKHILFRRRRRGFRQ
Format: functional.

Test [2] deals with T2, Type-1 angiotensin II receptor (Homo sapiens, UniProt P30556).
T2 sequence (P30556 whole entry): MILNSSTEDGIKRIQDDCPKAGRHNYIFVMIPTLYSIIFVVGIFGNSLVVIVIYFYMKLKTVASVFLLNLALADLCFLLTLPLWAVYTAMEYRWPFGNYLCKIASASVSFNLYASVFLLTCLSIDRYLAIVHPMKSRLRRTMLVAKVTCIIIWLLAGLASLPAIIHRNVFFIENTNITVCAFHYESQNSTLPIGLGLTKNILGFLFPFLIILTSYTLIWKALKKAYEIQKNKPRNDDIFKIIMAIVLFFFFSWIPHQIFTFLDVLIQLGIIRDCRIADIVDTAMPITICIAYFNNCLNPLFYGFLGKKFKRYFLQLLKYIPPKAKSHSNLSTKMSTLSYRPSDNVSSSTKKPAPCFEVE

Test [3] has as its target T3, Muscarinic acetylcholine receptor M2 (Homo sapiens, UniProt P08172).
T3 sequence (P08172 whole entry): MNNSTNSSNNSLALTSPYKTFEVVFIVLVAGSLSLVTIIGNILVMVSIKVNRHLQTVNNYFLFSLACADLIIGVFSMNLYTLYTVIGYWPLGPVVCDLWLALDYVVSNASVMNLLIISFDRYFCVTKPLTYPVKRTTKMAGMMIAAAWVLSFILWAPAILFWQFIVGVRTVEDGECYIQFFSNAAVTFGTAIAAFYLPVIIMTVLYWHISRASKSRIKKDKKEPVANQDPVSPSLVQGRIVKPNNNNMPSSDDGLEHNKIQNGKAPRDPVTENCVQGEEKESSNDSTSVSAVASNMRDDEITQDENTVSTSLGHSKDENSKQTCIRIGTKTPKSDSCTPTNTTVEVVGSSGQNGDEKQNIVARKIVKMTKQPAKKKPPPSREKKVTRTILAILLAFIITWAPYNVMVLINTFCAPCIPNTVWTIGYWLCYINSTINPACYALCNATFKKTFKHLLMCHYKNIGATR
Format: functional, cell-based.

The target of test [4] is T4, 5-hydroxytryptamine receptor 1A (Homo sapiens, UniProt P08908).
T4 sequence (P08908 whole entry): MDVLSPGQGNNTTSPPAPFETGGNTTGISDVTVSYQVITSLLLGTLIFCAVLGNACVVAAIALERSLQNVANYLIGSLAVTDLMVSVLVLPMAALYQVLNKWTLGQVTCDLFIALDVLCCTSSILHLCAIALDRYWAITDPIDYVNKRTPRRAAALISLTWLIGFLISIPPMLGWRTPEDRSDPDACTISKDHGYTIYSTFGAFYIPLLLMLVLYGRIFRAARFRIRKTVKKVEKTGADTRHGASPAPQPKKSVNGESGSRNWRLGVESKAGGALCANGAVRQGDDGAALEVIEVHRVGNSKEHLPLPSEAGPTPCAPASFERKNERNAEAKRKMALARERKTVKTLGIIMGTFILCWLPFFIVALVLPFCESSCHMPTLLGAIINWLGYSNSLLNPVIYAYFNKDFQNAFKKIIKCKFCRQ
Format: functional, cell-based.

In test [5] the target is 5-hydroxytryptamine receptor 2B (Homo sapiens, UniProt P41595). Format: functional, cell-based.
In test [6] the target is Vascular endothelial growth factor receptor 2 (Homo sapiens, UniProt P35968). The format is functional.
In the next test the target is T5, Progesterone receptor (Homo sapiens, UniProt P06401).
T5 sequence (P06401 whole entry): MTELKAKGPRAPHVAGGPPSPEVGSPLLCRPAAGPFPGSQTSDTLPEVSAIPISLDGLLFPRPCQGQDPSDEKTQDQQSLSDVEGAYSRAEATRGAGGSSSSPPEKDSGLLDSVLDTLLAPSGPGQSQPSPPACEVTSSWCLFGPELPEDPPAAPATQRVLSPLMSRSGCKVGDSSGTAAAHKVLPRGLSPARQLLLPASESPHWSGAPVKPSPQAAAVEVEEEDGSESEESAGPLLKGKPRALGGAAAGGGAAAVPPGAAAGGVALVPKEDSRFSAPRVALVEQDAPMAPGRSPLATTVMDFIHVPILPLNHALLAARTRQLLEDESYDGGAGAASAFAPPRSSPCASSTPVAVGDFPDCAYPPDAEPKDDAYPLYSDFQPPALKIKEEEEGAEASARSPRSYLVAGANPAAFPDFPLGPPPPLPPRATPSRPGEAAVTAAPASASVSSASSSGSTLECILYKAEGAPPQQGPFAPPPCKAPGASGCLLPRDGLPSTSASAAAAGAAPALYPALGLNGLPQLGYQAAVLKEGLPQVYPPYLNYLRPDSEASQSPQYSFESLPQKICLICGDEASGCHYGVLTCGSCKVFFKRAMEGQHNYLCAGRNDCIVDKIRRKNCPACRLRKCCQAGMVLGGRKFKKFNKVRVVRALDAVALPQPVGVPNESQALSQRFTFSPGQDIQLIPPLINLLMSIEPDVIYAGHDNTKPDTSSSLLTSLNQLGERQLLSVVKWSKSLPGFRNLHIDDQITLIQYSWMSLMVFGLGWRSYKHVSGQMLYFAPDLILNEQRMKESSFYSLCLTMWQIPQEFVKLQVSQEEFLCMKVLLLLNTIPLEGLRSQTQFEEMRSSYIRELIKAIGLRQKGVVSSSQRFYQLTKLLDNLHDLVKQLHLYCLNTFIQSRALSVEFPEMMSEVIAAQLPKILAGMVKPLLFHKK
Format: functional.

A word on the AC50: it is the concentration at which the activity in the assay is half-maximal.
Further: assay procedure not described here.

Vascular endothelial growth factor receptor 2, sequence (P35968 whole entry): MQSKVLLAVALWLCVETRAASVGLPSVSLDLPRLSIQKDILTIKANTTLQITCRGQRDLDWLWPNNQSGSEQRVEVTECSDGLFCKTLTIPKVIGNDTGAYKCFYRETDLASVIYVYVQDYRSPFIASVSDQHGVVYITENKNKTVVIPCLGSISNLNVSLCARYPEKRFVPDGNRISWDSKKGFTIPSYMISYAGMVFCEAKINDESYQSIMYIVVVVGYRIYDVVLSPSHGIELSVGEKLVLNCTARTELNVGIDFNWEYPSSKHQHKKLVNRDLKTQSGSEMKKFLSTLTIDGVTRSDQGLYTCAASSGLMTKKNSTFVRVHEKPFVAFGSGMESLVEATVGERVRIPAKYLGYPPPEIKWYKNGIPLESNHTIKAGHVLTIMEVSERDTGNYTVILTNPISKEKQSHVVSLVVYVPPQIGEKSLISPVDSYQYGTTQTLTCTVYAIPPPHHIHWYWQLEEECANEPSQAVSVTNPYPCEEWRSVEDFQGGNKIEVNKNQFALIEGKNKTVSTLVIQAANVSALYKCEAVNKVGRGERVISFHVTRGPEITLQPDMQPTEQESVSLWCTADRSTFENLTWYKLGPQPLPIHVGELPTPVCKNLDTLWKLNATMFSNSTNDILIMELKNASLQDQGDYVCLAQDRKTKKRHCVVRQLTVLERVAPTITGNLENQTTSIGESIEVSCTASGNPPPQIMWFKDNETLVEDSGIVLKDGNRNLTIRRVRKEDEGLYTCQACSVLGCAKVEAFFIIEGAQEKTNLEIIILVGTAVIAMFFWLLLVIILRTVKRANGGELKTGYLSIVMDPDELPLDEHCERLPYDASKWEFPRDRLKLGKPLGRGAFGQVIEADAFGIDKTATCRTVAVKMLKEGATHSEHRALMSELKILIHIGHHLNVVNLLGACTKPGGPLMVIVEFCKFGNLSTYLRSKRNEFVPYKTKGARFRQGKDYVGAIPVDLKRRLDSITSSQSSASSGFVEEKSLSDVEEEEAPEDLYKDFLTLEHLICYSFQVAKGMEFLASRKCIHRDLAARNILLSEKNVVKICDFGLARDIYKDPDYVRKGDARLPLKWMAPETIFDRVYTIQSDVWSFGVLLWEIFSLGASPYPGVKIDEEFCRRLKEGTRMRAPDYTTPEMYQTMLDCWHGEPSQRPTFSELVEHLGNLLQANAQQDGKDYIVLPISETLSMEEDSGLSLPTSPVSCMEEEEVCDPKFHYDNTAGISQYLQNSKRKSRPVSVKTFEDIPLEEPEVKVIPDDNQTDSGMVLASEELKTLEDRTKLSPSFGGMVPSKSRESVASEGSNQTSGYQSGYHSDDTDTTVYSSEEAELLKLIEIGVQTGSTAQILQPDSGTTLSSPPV
5-hydroxytryptamine receptor 2B, sequence (P41595 whole entry): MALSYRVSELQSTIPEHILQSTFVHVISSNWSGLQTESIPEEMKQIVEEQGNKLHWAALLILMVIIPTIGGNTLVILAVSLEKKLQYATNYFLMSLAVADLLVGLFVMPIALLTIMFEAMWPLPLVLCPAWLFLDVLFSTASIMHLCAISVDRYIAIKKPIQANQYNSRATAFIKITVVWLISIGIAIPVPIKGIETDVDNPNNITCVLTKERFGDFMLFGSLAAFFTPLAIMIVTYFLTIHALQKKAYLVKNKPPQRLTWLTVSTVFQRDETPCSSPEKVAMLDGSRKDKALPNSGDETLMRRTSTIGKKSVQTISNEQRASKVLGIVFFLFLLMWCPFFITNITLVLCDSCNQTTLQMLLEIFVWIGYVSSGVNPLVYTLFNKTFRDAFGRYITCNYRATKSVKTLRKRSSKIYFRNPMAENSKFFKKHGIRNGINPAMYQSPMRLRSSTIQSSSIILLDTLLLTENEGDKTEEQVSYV

As to `CC(=O)/N=c1/sc(S(N)(=O)=O)nn1C` [METHAZOLAMIDE], the AC50 in test [1] is over 10 µM; in test [2] it was over 10 µM; in test [3], over 10 µM; in test [4], over 10 µM; in test [5] it was over 10 µM; in test [6], over 30 µM. At Progesterone receptor, this molecule came in with an AC50 of over 10 µM.

For the molecule `CC(=O)Oc1ccccc1C(=O)Nc1ncc([N+](=O)[O-])s1` [NITAZOXANIDE], the AC50 in test [2] is 5.6 µM; in test [4] it was over 30 µM; in test [5], over 30 µM; in test [6], over 30 µM; on Progesterone receptor, over 30 µM.

With `CCCCCCCCCCC[C@@H](C[C@@H]1OC(=O)[C@H]1CCCCCC)OC(=O)[C@H](CC(C)C)NC=O` [ORLISTAT], in test [6], the AC50 is over 30 µM.

Consider `O=C1[C@H]2CCCC[C@H]2C(=O)N1CCCCN1CCN(c2nsc3ccccc23)CC1` [PEROSPIRONE], for which, in test [6], the AC50 is over 30 µM.

`CN(C)CCC(c1ccccc1)c1ccccn1` (stereo not drawn) [PHENIRAMINE] yielded an AC50 in test [6] of over 30 µM.

`CNC[C@H](O)c1cccc(O)c1` [PHENYLEPHRINE]: the AC50 in test [2] is over 30 µM; in test [3], over 10 µM; in test [4] it was over 30 µM; in test [5], over 30 µM; in test [6] it was over 30 µM.

In turn, `CC(C)COc1ccc(CNC(=O)N(Cc2ccc(F)cc2)C2CCN(C)CC2)cc1` [PIMAVANSERIN] came in with an AC50 in test [6] of over 30 µM.

Consider `CC(C)(C)C(=O)NCCCC(=O)O` [PIVAGABINE], for which, in test [6], the AC50 was over 30 µM.

In the case of `CC(C)[N+](C)(CCOC(=O)C1c2ccccc2Oc2ccccc21)C(C)C` [PROPANTHELINE], in test [6], the AC50 was over 30 µM.

In test [6], `CN(C)C(=O)c1nc(CNC(=O)CN)n(-c2ccc(Cl)cc2C(=O)c2ccccc2Cl)n1` [RILMAZAFONE] showed an AC50 of over 30 µM.

With `NC(=O)NS(=O)(=O)c1ccc(N)cc1` [SULFACARBAMIDE], the AC50 in test [6] is over 30 µM.

Consider `CCCCCCCCNC(C)C(O)c1ccc(SC(C)C)cc1` (stereo not drawn) [SULOCTIDIL], for which, in test [6], the AC50 was over 30 µM.

The molecule `NCCc1ccc(O)cc1` [TYRAMINE] came in with an AC50 in test [6] of over 30 µM.

On to `CCCCCCCCCCCCCCCC(=O)OC/C=C(C)/C=C/C=C(C)/C=C/C1=C(C)CCCC1(C)C` [VITAMIN A PALMITATE], for which the AC50 in test [6] was over 30 µM.
